Measured values from patent US20090257987A1, “Method of generating dopamine-secreting cells” (Ramot At Tel Aviv University Ltd., priority 2008, published 2009).

B1: transforming growth factor β3 (protein, UniProt P10600 301-412, looked up)
Transforming growth factor …: ALDTNYCFRNLEENCCVRPLYIDFRQDLGWKWVHEPKGYYANFCSGPCPYLRSADTTHSTVLGLYNTLNPEASASPCCVPQDLEPLTILYYVGRTPKVEQLSNMVVKSCKCS
notes: transforming growth factor β3 (2 ng/ml) added to the Basic induction medium
B2: glial-derived neurotrophic factor (protein, UniProt P39905 78-211, looked up)
Glial cell line-derived …: SPDKQMAVLPRRERNRQAAAANPENSRGKGRRGQRGKNRGCVLTAIHLNVTDLGLGYETKEELIFRYCSGSCDAAETTYDKILKNLSRNRRLVSDKVGQACCRPIAFDDDLSFLDDNLVYHILRKHSAKRCGCI
notes: glial-derived neurotrophic factor (10 ng/ml) added to the Basic induction medium

Columns and labels:
human MSCs [1] = experiment: Western blot analysis of TH protein expression after differentiation protocols; type: cell-based; settings: result in words
Experimental: MSC isolation, culture, and characterization: Fresh bone marrow aspirates harvested from the iliac crests of adult donors (age 19-76) were diluted with Hanks' balanced salt solution. Mononuclear cells were isolated by centrifugation in Unisep-Maxi tubes (Novamed, Jerusalem, Israel) by density gradient. The cells were then plated in Dulbecco's Modified Eagle's Medium (DMEM) supplemented with 15% fetal bovine serum (FBS), 2 mM glutamine, 100 μg/ml streptomycin, 100 units/ml penicillin, 12.5 units/ml nystatin (Biological Industries, Beit HaEmek, Israel) in polystyrene plastic 75-cm^2 tissue-culture flasks. After 24 hours, nonadherent cells were removed. The medium was changed every 3-4 days. Adherent cells were cultured to 70%-90% confluence and reseeded at a density of 5,000-10,000 cells/cm^2. The cells were maintained at 37° C. in a humidified 5% CO2 incubator. The MSCs were characterized for their cell-surface phenotype and their mesenchymal differentiation capacity, as previously described (Blondheim er al., 2006, Stem Cells Dev 15:141-164).
(§1) Induction of differentiation: The differentiation protocol was composed of 2 steps. In step 1, cells were transferred to serum-free medium (DMEM) supplemented with 2 mM glutamine, 100 μg/ml streptomycin, 100 units/ml penicillin, 12.5 units/ml nystatin (Biological Industries), N2 supplement (Invitrogen, New Haven, Conn.) and 20 ng/ml fibroblast growth factor 2 and epidermal growth factor (both from R&D Systems, Minneapolis, Minn.) for 48-72 hours. In step 2, the medium was changed to Basic induction medium containing Neurobasal, B27 (both from Invitrogen), in addition to 1 mM dibutyryl cyclic AMP (dbcAMP), 3-isobutyl-1-methyl-xanthine (IBMX), and 200 μM ascorbic acid (all from Sigma, St Louis, Mo.). The following factors were added to the Basic induction medium in different combinations: brain-derived neurotrophic factor (BDNF; 50 ng/ml), glial-derived neurotrophic factor (GDNF;10 ng/ml), neurturin (100 ng/ml), neurotrophin 3 (NT3; 50 ng/ml), and fibroblast growth factor 8 (FGF8; 100 ng/ml (all from Cytolab, Rehovot, Israel); transforming growth factor β3 (TGFβ3; 2 ng/ml), sonic hedgehog (Shh; 500 ng/ml, both from R&D); estrogen (0.1 μM, Sigma); and all-trans-retinoic acid (RA; 0.1 μM, Sigma).
Western blot: Total protein was extracted by suspending the harvested cells in lysis buffer containing 10 mM Tris base (U.S. Biochemical Corporation, Cleveland, Ohio), 5 mM EDTA (Merck, Whitehouse Station, N.J.), 140 mM sodium chloride (NaCl; BioLab, Jerusalem, Israel), 10 mM sodium fluoride (NaF; Sigma), 0.5% NP 40 (U.S. Biochemical Corporation), and 1 μM phenylmethylsulfonyl fluoride (PMSF; Sigma). Following incubation on ice for 30 minutes, the mixture was centrifuged and the supernatants were collected. Protein content was determined by the BCA protein assay kit (Pierce, Rockford, Ill.). Twenty-five micrograms of protein from each sample were subjected to sodium dodecyl-sulfate (SDS)-polyacrylamide gel electrophoresis (PAGE) (12.5% acrylamide), followed by electrophoretic transfer to nitrocellulose membrane (Schleicher & Schuell, Dassel, Germany). Membranes were probed by mouse anti-TH (1:10,000, Sigma) and mouse anti β-actin (1:10,000, Chemicon, Billerica, Mass.) and then by goat anti-mouse horseradish peroxidase conjugated antibody (1:10,000) (Jackson, West Grove, Pa.) and rabbit anti-emerin (1:5,000, Santa Cruz Biotechnology, Santa Cruz, Calif.), followed by goat anti-rabbit horseradish peroxidase conjugated secondary antibody (1:10,000, Sigma). Adequate controls included HeLa cells (ATCC, Manassas, Va.) as negative control and neuroblastoma M17 cells (BE (2)-M17, ATCC) as positive control. Proteins of interest were detected using the enhanced Super Signal® chemiluminescent detection kit (Pierce).

human MSCs [2] = experiment: Cell death in culture on supplementation of antioxidants; type: cell-based; settings: antioxidant supplementation of differentiation medium; data not shown
Experimental: as §1

Molecule	TH protein expression level normalized to actin (human MSCs [1])	cell death in the culture (human MSCs [2])
sonic hedgehog [+SHH]	directly affected the TH protein expression level	–
COc1ccc(O)c(C(C)(C)C)c1 [BHA, butylated hydroxyanisole, reference compound]	did not facilitate upregulation	higher levels of cell death
CC(=O)N[C@@H](CS)C(=O)O [NAC, N-acetylcysteine, reference compound]	did not facilitate upregulation	higher levels of cell death
estrogen [+estrogen, reference compound]	directly affected the TH protein expression level	–
B1	directly affected the TH protein expression level	–
B2	directly affected the TH protein expression level	–
